pEC50: −log10 of the molar value.
Experiments:
[1] = target: T1, 5-HT2A receptors (Gq activation) (Homo sapiens, UniProt P28223); assay: BRET-based assay of Gq activation; assay type: cell-based
T1 construct: expressed in transfected cells; host or cells: HEK293T (transient)
Description: IP1 Assay (5-HT2AR and 5-HT2CR). The 5-HT2AR and 5-HT2CR IPOne HTRF assays were performed at Epics
Therapeutics S.A. (Belgium, FAST-0505I) using conventional methods. Experiments were performed using the free bases
of (+)-JRT and (–)-JRT. Briefly, CHO-K1 cells expressing human recombinant 5-HT2AR grown to mid-log phase in culture
media without antibiotics were detached with PBS-EDTA, centrifuged, and resuspended in medium without antibiotics
buffer. Then, 20,000 cells were distributed in a 96-well plate and incubated overnight at 37 °C with 5% CO2. For agonist
were added to each well. The plate was incubated for 60 min at 37 °C with 5% CO2. After addition of the lysis buffer containing
IP1-d2 and anti-IP1 cryptate detection reagents, plates were incubated for 1 h at room temperature and fluorescence ratios
were measured according to the manufacturer’s specifications using the HTRF kit.
IP1 Assay (5-HT2BR). The 5-HT2BR IP1 assays were performed at Eurofins Cerep SA (Celle l’Evescault, France) using
conventional methods (Catalog #3344) as described previously.14 Experiments were performed using the free bases of (+)-
JRT and (–)-JRT. Briefly, CHO cells transfected with the human 5-HT2B receptor were suspended in a buffer containing
10 mM Hepes/NaOH (pH 7.4), 4.2 mM KCl, 146 mM NaCl, 1 mM CaCl2, 0.5 mM MgCl2, 5.5 mM glucose and 50 mM LiCl.
Then the cells were distributed in microplates at a density of ~2.104 cells/well and incubated for 30 min at 37°C in the
presence of buffer (basal control), test compound, or reference agonist. For stimulated control measurement, separate
Following incubation, the cells are lysed and the fluorescence acceptor (D2-
labeled IP1) and fluorescence donor (anti-IP1 antibody labeled with europium cryptate) were added. After 60 min at room
temperature, the fluorescence transfer was measured at lex = 337 nm and lem = 620 and 665 nm using a microplate
reader (Envision, Perkin Elmer). The IP1 concentration was determined by dividing the signal measured at 665 nm by that
measured at 620 nm (ratio).
BRET-Based GPCR Assays. […]

[2] = system: cultured rat embryonic cortical neurons; assay: Neuritogenesis assay (Sholl analysis, DIV6); assay type: cell-based
Description: Figure S8. […] (A) Sholl analysis of embryonic day 18 (E18) rat cortical
(D) Area under the curves of the Sholl plots
N values are shown within the bars. VEH =
Neuritogenesis Assays. Neuritogenesis Assays were performed as previously described (17) with slight modifications.
Briefly, 96 well plates were coated with poly-D-lysine and approximately 15,000 cells/well. Neurons were treated after 3 days in vitro (DIV3) for 1 h followed by a complete media change. Cells were incubated for an additional 3 days before fixing and staining for MAP2 on DIV6. Neurites were visualized using a chicken anti-MAP2 antibody (1:10,000; EnCor, CPCA-MAP2) and an anti-chicken IgG secondary antibody conjugated to Alexa Fluor 488 (Life Technologies, 1:500). Plates were imaged in DPBS on a Thermo Scientific CellInsight CX7 High-Content Screening Platform at 20x (N.A. = 0.45). Images were analyzed using the Simple Neurite Tracer and Sholl analysis plug-ins for ImageJ Fiji (version 1.51N). Sholl analysis circle radii = 2 µm increments. All images were taken and analyzed by an experimenter blinded to treatment conditions.

[3] = system: E18 rat embryonic cortical neurons (DIV18-19); assay: Spinogenesis assay using cultured rat cortical neurons; assay type: cell-based
[4] = system: Thy1-EGFP mice, layer 2/3 of the mPFC; assay: In vivo spinogenesis after chronic corticosterone administration; conditions: 24 h, mean ± SEM
Description: In Vivo Spinogenesis after chronic corticosterone administration. Male and female Thy1-EGFP mice were given 1 week to acclimate to the new vivarium, then transferred to new cages (individually housed). Once individually housed, the mice were administered corticosterone (20 mg/kg; IP) in DMSO (2 mL/kg) or gently handled daily for 20 days. On day 21, mice were treated with VEH (saline) or (+)-JRT (1 mg/kg; IP). After 24 h, mice were anesthetized with isoflurane and transcardially perfused with paraformaldehyde (PFA, 4% in PBS, 7.4 pH). After extraction of the brains, samples were fixed in 4% PFA at 4° C overnight. The brains were cryo-protected by immersion in a 15% sucrose solution (15% sucrose in PBS w/v) overnight. Next, samples were placed in 30% sucrose solution (30% sucrose in PBS w/v) for at least 1 day. Samples were then embedded in optimal cutting temperature compound (OCT), sliced into 100 µm coronal sections using a cryostat, and mounted on slides which were left in the dark overnight to dry. Coverslips were mounted onto microscope slides using ProLong Gold. Slides were imaged on a Nikon HCA Spinning Disc confocal microscope equipped with a 100x/NA 1.45 oil objective. Images of dendrites and dendritic spines within layer 2/3 of the mPFC were captured and manually counted by a trained experimenter blinded to treatment conditions.

C57BL/6J mice [5] = assay: Prepulse inhibition (PPI); assay type: in vivo
Description: Amphetamine-Induced Locomotion. The amphetamine-induced hyperlocomotion assay was performed using male and female C57BL/6J mice that were approximately 8 weeks old at the time of the experiments. Animals were first placed in the test arena (40 cm x 40 cm) for 15 min to obtain a basal reading of locomotion and habituate them to the testing arena.
Next, animals were administered (+)-JRT (1 mg/kg) or VEH (2.5 mL/kg, i.p) and placed back in the test arena. After 15 min, the animals were administered (+)-amphetamine (3 mg/kg) or VEH (2.5 mL/kg) and placed back in the test arena for 60 minutes. Locomotion during the entire experiment was quantified using ANYmaze Video Tracking System, version 7.07 (Stoelting Co.). The test arena was cleaned thoroughly with 70% ethanol between trials.
PCP-Induced Locomotion. The PCP-induced hyperlocomotion assay was performed by Psychogenics using male C57BL/6J mice that were approximately 8 weeks old at the time of the experiments. The experiment was performed during the animal’s light cycle phase. […] Baseline activity was recorded for 30 min. […] Locomotion was assessed using consecutive infrared beam breaks. […]
Next, startle response was measured in response to five 40 ms sound bursts of 80, 90, 100, 110, or 120 dB (random order, fixed intertrial interval). […] Percent PPI was calculated according to the formula: 100 – [(pre-pulse + pulse)/pulse alone) × 100. […]

male Long Evans rats = assay: Probabilistic reward task (PRT) under chronic cold-water stress; assay type: in vivo; conditions: for Response bias (log b) (Figure 6G): JRT 1 mg/kg
[6] = Pharmacokinetics studies (plasma and brain); assay type: in vivo, rats
Description: Pharmacokinetic studies of (+)-JRT.
rats following a 1 mg/kg IP administration of (+)-JRT fumarate (N = 3).
JRT in the brains of rats following a 1 mg/kg IP administration of (+)-JRT fumarate (N = 3 for the 0.25, 0.5, and 1.0 h time
points, N = 1 for the 2.0 h time point).
Pharmacokinetics Studies. […] Male Sprague Dawley rats (190 – 206 g) were purchased from Shanghai JiHui Laboratory Animal Co., Ltd (Shaghai, China) and were administered (+)-JRT fumarate via IP injection (1 mg/kg, 5 mL/kg) after overnight fasting. Animals were sacrificed and plasma and brain samples were collected at time points of 0.25, 0.5, 1, 2, and 4 hours post dose (N = 3 per time point). Approximately 150 μL of blood was collected into a K2EDTA tube via jugular vein. Blood samples were put on wet ice and centrifuged to obtain plasma samples (2000 g, 5 min, 4 °C) within 15 min. After blood collection, a mid-line incision was made into the scalp and the skin retracted. The skull overlaying the brain was removed, and the whole brain was collected, rinsed with cold saline, dried on filter paper, weighed, and snap frozen via dry ice. Plasma and brain samples were stored at approx. -70 °C until analysis.
For plasma samples, an aliquot of 30 μL sample was mixed with 200 μL internal standard (IS) (propranolol, 40 ng/mL in MeCN). The mixture was vortexed for 1 min and centrifuged at 5800 rpm for 10 min. The supernatant was collected and 0.5 μL was injected for LC-MS/MS analysis. Brain samples were homogenized with 2 volumes (v/w) of PBS (dilution factor of 3). The procedure for diluted brain samples was the same as the plasma samples. Plasma concentrations are reported as ng/mL and brain concentrations, with a dilution factor of 3 applied, are reported as ng/g. […]
1.61 min and 1.43 min respectively, and the analytes were ionized under a positive ion spray mode and detected through […]

C57BL/6J mice [7] = assay: 4-odor discrimination and reversal after unpredictable mild stress; assay type: in vivo

T1 sequence (P28223 whole entry): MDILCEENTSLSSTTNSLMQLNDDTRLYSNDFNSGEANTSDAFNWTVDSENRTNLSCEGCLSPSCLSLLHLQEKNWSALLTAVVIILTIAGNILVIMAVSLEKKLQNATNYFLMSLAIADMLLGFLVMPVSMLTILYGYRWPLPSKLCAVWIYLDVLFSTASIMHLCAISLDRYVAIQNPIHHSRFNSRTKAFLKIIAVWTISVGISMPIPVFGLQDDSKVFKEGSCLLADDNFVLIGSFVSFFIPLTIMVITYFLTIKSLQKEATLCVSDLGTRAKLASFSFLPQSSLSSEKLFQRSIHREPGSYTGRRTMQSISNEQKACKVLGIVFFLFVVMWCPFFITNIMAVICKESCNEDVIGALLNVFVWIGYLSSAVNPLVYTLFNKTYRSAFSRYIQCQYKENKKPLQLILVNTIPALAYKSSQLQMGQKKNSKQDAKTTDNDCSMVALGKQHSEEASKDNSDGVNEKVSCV

## CCN(CC)C(=O)[C@@H]1C=C2c3cccc4ccn(c34)C[C@H]2N(C)C1 [(+)-JRT]
[1]; Gq Activation: EC50, agonist mode
  pEC50: 9.40
[1]; Gq Activation: EC50, antagonist mode, cotreated with 10 μM serotonin (5-HT + compound)
  pEC50: 6.03
[1]; read-out: Gq Activation: EMax
  Emax: 33%
[2]; 1 μM, DIV6, compared to vehicle control
  Nmax (maximum number of crossings of the Sholl plots): increased Nmax values to a greater extent than CLZ
[2]; 1 µM, DIV6, VEH 1.000 ± 0.05010, mean ± SEM
  Area under the curves of the Sholl plots (Figure S8D): 1.193 ± 0.05057
[2]; 1 µM, DIV6, VEH 2.325 ± 0.2641, mean ± SEM
  Total branches (Figure S8C): 4.121 ± 0.3838
[2]; 1 µM, DIV6, VEH 6.275 ± 0.2292, mean ± SEM
  Number of primary dendrites (Figure S8B): 8.152 ± 0.2824
[3]; 1 μM, 24 h, DIV19, compared to vehicle (P < 0.0001) and CLZ (P = 0.0005)
  Dendritic spine growth in mature cortical cultures: promoted dendritic spine growth
[3]; compound 1 μM
  Effect of ketanserin (10 μM) pretreatment on compound-induced dendritic spine density: blocks
[4]; GH (gentle handling) + JRT 1 mg/kg IP, GH VEH 12.17 ± 0.5278
  Dendritic spine density, layer 2/3 mPFC (Table S1, matches Fig. 4N): 11.36 ± 0.8451
[4]; chronic CORT 20 d + JRT 1 mg/kg IP
  Dendritic spine density, layer 2/3 mPFC (Table S1, matches Fig. 4N): 10.77 ± 0.5664
C57BL/6J mice [5]; 1 mg/kg IP
  Deficits in prepulse inhibition induced by the compound itself: did not induce any deficits in PPI
C57BL/6J mice [5]; 1 mg/kg IP pretreatment, MK-801
  Effect of pretreatment on MK-801-induced deficits in prepulse inhibition: did not exacerbate
Male Long Evans rats; 1 mg/kg, continued daily cold-water stress
  Persistence of the effect on response bias following a single dose: at least 3 d
Male Long Evans rats; Day 2, Day 1 0.131 ± 0.082
  Response bias (log b) (Figure 6G): 0.406 ± 0.069
Male Long Evans rats; Day 3, Day 1 0.131 ± 0.082
  Response bias (log b) (Figure 6G): 0.474 ± 0.112
Male Long Evans rats; Day 11, Day 1 0.131 ± 0.082
  Response bias (log b) (Figure 6G): 0.290 ± 0.061
Male Long Evans rats; Day 1 (stressed, before drug) 0.131 ± 0.082
  Response bias (log b) (Figure 6G): 0.491 ± 0.071
[6]; 1 mg/kg IP dose
  Presence in rat brain and plasma within 2 h: nearly absent
[6]; 1 mg/kg IP, (+)-JRT fumarate, rats
  Levels in plasma or brain at 4 h: below the limit of quantification
[6]; 1 mg/kg, rat
  Brain concentration relative to the Ki at the 5-HT2AR: ~ 20 fold
C57BL/6J mice [7]; (+)-JRT 1 mg/kg IP + Stress (UMS), VEH + Stress 20.20 ± 1.843, VEH – Stress 21.27 ± 2.516
  Discrimination (Figure 7B): 20.50 ± 2.212
C57BL/6J mice [7]; (+)-JRT 1 mg/kg IP + Stress (UMS), VEH + Stress 21.00 ± 2.385, VEH – Stress 13.64 ± 1.744
  Reversal (Figure 7B): 12.40 ± 1.118
C57BL/6J mice [7]; Stress + (+)-JRT 1 mg/kg IP, Stress 41.20 ± 3.972, VEH 34.91 ± 2.661
  Total Trials (Figure S17): 32.90 ± 2.479

Reference: publication PMC12037037 (Proceedings of the National Academy of Sciences of the …, 2025)
